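Results reflect a 48-hour exposure of cells in 96-well plates to compound at five concentrations. GI50 marks 50% less growth.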 Activity calls are given as the source filed them. Cut-off read from the data, not from the text of the source: active = GI50 up to about 1.1 µM and inactive = higher.
Legend:
Assay in all cases: DTP human tumour cell line panel, 48 h
MCF7 = test system: MCF7
UACC-62 = test system: UACC-62
COLO 205 = test system: COLO 205
HCT-116 = test system: HCT-116
ACHN = test system: ACHN
A549 = test system: A549
SNB-75 = test system: SNB-75
MOLT-4 = test system: MOLT-4
EKVX = test system: EKVX
IGROV-1 = test system: IGROV-1
A498 = test system: A498
OVCAR-5 = test system: OVCAR-5
OVCAR-8 = test system: OVCAR-8
SF-295 = test system: SF-295
SF-539 = test system: SF-539
BT-549 = test system: BT-549
HCT-15 = test system: HCT-15
SF-268 = test system: SF-268
DU-145 = test system: DU-145
K562 = test system: K562
HOP-92 = test system: HOP-92
UO-31 = test system: UO-31
NCI/ADR-RES = test system: NCI/ADR-RES
CAKI-1 = test system: CAKI-1
NCI-H226 = test system: NCI-H226
SW-620 = test system: SW-620
NCI-H522 = test system: NCI-H522
Hs-578T = test system: Hs-578T
Malme-3M = test system: Malme-3M
OVCAR-4 = test system: OVCAR-4
LOX IMVI = test system: LOX IMVI
M14 = test system: M14
SR = test system: SR
T47D = test system: T47D
SN12C = test system: SN12C
RPMI-8226 = test system: RPMI-8226
KM12 = test system: KM12
HOP-62 = test system: HOP-62
SK-MEL-28 = test system: SK-MEL-28
OVCAR-3 = test system: OVCAR-3
MDA-MB-435 = test system: MDA-MB-435
HT-29 = test system: HT-29
RXF 393 = test system: RXF 393
SNB-19 = test system: SNB-19
786-0 = test system: 786-0
NCI-H23 = test system: NCI-H23
SK-OV-3 = test system: SK-OV-3
SK-MEL-5 = test system: SK-MEL-5
U-251 = test system: U-251
CCRF-CEM = test system: CCRF-CEM
TK-10 = test system: TK-10
UACC-257 = test system: UACC-257
NCI-H460 = test system: NCI-H460
HCC 2998 = test system: HCC 2998
PC-3 = test system: PC-3
MDA-MB-231 = test system: MDA-MB-231
SK-MEL-2 = test system: SK-MEL-2
HL-60 = test system: HL-60

ON(CCc1ccncc1)Cc1ccccc1
GI50 (MCF7): > 100 µM (inactive) | GI50 (UACC-62): > 100 µM (inactive) | GI50 (COLO 205): > 100 µM (inactive) | GI50 (HCT-116): > 100 µM (inactive) | GI50 (ACHN): > 100 µM (inactive) | GI50 (A549): > 100 µM (inactive) | GI50 (SNB-75): > 100 µM (inactive) | GI50 (MOLT-4): > 100 µM (inactive) | GI50 (EKVX): > 100 µM (inactive) | GI50 (IGROV-1): > 100 µM (inactive) | GI50 (A498): > 100 µM (inactive) | GI50 (OVCAR-5): > 100 µM (inactive) | GI50 (OVCAR-8): > 100 µM (inactive) | GI50 (SF-295): > 100 µM (inactive) | GI50 (SF-539): > 100 µM (inactive) | GI50 (BT-549): > 100 µM (inactive) | GI50 (HCT-15): > 100 µM | GI50 (SF-268): > 100 µM (inactive) | GI50 (DU-145): > 100 µM (inactive) | GI50 (K562): > 100 µM (inactive) | GI50 (HOP-92): > 100 µM (inactive) | GI50 (UO-31): > 100 µM (inactive) | GI50 (NCI/ADR-RES): > 100 µM (inactive) | GI50 (CAKI-1): > 100 µM (inactive) | GI50 (NCI-H226): > 100 µM (inactive) | GI50 (SW-620): > 100 µM (inactive) | GI50 (NCI-H522): > 100 µM (inactive) | GI50 (Hs-578T): > 100 µM (inactive) | GI50 (Malme-3M): > 100 µM (inactive) | GI50 (OVCAR-4): > 100 µM (inactive) | GI50 (LOX IMVI): > 100 µM (inactive) | GI50 (M14): > 100 µM (inactive) | GI50 (SR): > 100 µM (inactive) | GI50 (T47D): > 100 µM (inactive) | GI50 (SN12C): > 100 µM (inactive) | GI50 (RPMI-8226): > 100 µM (inactive) | GI50 (KM12): > 100 µM (inactive) | GI50 (HOP-62): > 100 µM (inactive) | GI50 (SK-MEL-28): > 100 µM (inactive) | GI50 (OVCAR-3): > 100 µM (inactive) | GI50 (MDA-MB-435): > 100 µM (inactive) | GI50 (HT-29): > 100 µM (inactive) | GI50 (RXF 393): > 100 µM (inactive) | GI50 (SNB-19): > 100 µM (inactive) | GI50 (786-0): > 100 µM (inactive) | GI50 (NCI-H23): > 100 µM (inactive) | GI50 (SK-OV-3): > 100 µM (inactive) | GI50 (SK-MEL-5): > 100 µM (inactive)

Brc1ccc2c(-c3csc(-c4c[nH]c5ccccc45)n3)c[nH]c2c1
GI50 (UACC-62): 18.2 µM (inactive) | GI50 (COLO 205): 12.8 µM (inactive) | GI50 (HCT-116): 14.7 µM (inactive) | GI50 (ACHN): 15.7 µM (inactive) | GI50 (U-251): 17.9 µM (inactive) | GI50 (A549): 15.8 µM (inactive) | GI50 (SNB-75): 24.4 µM (inactive) | GI50 (EKVX): 15.6 µM (inactive) | GI50 (IGROV-1): 13 µM (inactive) | GI50 (A498): 17 µM (inactive) | GI50 (OVCAR-5): 16.1 µM (inactive) | GI50 (OVCAR-8): 18.2 µM (inactive) | GI50 (SF-539): 16 µM (inactive) | GI50 (BT-549): 18.3 µM (inactive) | GI50 (CCRF-CEM): 14.7 µM (inactive) | GI50 (SF-268): 18.3 µM (inactive) | GI50 (DU-145): 18.8 µM (inactive) | GI50 (HOP-92): 15.6 µM (inactive) | GI50 (UO-31): 14 µM (inactive) | GI50 (NCI/ADR-RES): 16.8 µM (inactive) | GI50 (CAKI-1): 15.8 µM (inactive) | GI50 (NCI-H226): 14.5 µM (inactive) | GI50 (SW-620): 16.5 µM (inactive) | GI50 (TK-10): 12.4 µM (inactive) | GI50 (NCI-H522): 17.3 µM (inactive) | GI50 (Malme-3M): 16.9 µM (inactive) | GI50 (OVCAR-4): 16 µM (inactive) | GI50 (LOX IMVI): 15.5 µM (inactive) | GI50 (M14): 14.3 µM (inactive) | GI50 (UACC-257): 22.8 µM (inactive) | GI50 (T47D): 24.8 µM (inactive) | GI50 (SN12C): 17.3 µM (inactive) | GI50 (RPMI-8226): 19.4 µM (inactive) | GI50 (KM12): 14.2 µM (inactive) | GI50 (HOP-62): 15 µM (inactive) | GI50 (SK-MEL-28): 14.9 µM (inactive) | GI50 (NCI-H460): 16.1 µM (inactive) | GI50 (OVCAR-3): 13.8 µM (inactive) | GI50 (MDA-MB-435): 14.9 µM (inactive) | GI50 (HT-29): 15.6 µM (inactive) | GI50 (HCC 2998): 15.1 µM (inactive) | GI50 (PC-3): 15.6 µM (inactive) | GI50 (RXF 393): 22.4 µM (inactive) | GI50 (SNB-19): 17.8 µM (inactive) | GI50 (786-0): 17.9 µM (inactive) | GI50 (SK-OV-3): 18.9 µM (inactive) | GI50 (MDA-MB-231): 16.1 µM (inactive) | GI50 (SK-MEL-5): 15.3 µM (inactive)

C=C1CC[C@@H]2C13[C@@H]1[C@H](CC(=O)[C@@]23C)C1(C)C (stereo partly drawn)
GI50 (MCF7): > 100 µM (inactive) | GI50 (UACC-62): > 100 µM (inactive) | GI50 (COLO 205): 84.5 µM (inactive) | GI50 (HCT-116): > 100 µM (inactive) | GI50 (ACHN): > 100 µM (inactive) | GI50 (U-251): > 100 µM (inactive) | GI50 (A549): 26.4 µM (inactive) | GI50 (MOLT-4): > 100 µM (inactive) | GI50 (IGROV-1): 55.7 µM (inactive) | GI50 (A498): > 100 µM (inactive) | GI50 (SK-MEL-2): > 100 µM (inactive) | GI50 (OVCAR-5): > 100 µM (inactive) | GI50 (OVCAR-8): 35.9 µM (inactive) | GI50 (SF-295): 82 µM (inactive) | GI50 (SF-539): 67.1 µM (inactive) | GI50 (BT-549): > 100 µM (inactive) | GI50 (HCT-15): > 100 µM | GI50 (SF-268): > 100 µM (inactive) | GI50 (DU-145): > 100 µM (inactive) | GI50 (K562): 81.5 µM (inactive) | GI50 (HL-60): > 100 µM (inactive) | GI50 (HOP-92): > 100 µM (inactive) | GI50 (UO-31): 16.4 µM (inactive) | GI50 (NCI/ADR-RES): > 100 µM (inactive) | GI50 (CAKI-1): > 100 µM (inactive) | GI50 (NCI-H226): > 100 µM (inactive) | GI50 (SW-620): 51.4 µM (inactive) | GI50 (TK-10): 33.7 µM (inactive) | GI50 (NCI-H522): > 100 µM (inactive) | GI50 (Hs-578T): > 100 µM (inactive) | GI50 (Malme-3M): > 100 µM (inactive) | GI50 (OVCAR-4): 15.5 µM (inactive) | GI50 (LOX IMVI): > 100 µM (inactive) | GI50 (M14): > 100 µM (inactive) | GI50 (UACC-257): > 100 µM (inactive) | GI50 (SR): 11.7 µM (inactive) | GI50 (T47D): 55.8 µM (inactive) | GI50 (SN12C): > 100 µM (inactive) | GI50 (RPMI-8226): > 100 µM (inactive) | GI50 (KM12): > 100 µM (inactive) | GI50 (HOP-62): 24 µM (inactive) | GI50 (SK-MEL-28): > 100 µM (inactive) | GI50 (NCI-H460): > 100 µM (inactive) | GI50 (OVCAR-3): 21.6 µM (inactive) | GI50 (MDA-MB-435): > 100 µM (inactive) | GI50 (HT-29): > 100 µM (inactive) | GI50 (PC-3): > 100 µM (inactive) | GI50 (RXF 393): 43.6 µM (inactive) | GI50 (786-0): 55.1 µM (inactive) | GI50 (NCI-H23): > 100 µM (inactive) | GI50 (SK-OV-3): > 100 µM (inactive) | GI50 (SK-MEL-5): > 100 µM (inactive)

From ChEMBL document CHEMBL1201862, “PubChem BioAssay data set” (2004)
